Measured values: PubChem BioAssay (NCI)
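Protocol summary: plate cells (96-well), add compound at 5 concentrations, incubate 48 h, interpolate endpoints linearly. TGI: total growth inhibition.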

Columns and labels:
Experiment in all cases: growth of human tumour cells (NCI), 48 h
[1] = test system: TK-10 renal
[2] = test system: OVCAR-8 ovarian
[3] = test system: IGROV1 ovarian
[4] = test system: SF-268 CNS
[5] = test system: COLO 205 colon
[6] = test system: A498 renal
[7] = test system: CCRF-CEM leukemia
[8] = test system: U251 CNS
[9] = test system: UACC-62 melanoma
[10] = test system: SK-MEL-2 melanoma
[11] = test system: M14 melanoma
[12] = test system: HOP-92 NSCLC
[13] = test system: MDA-MB-435
[14] = test system: RXF 393 renal
[15] = test system: OVCAR-3 ovarian
[16] = test system: LOX IMVI melanoma
[17] = test system: ACHN renal
[18] = test system: SK-MEL-5 melanoma
[19] = test system: SNB-19 CNS
[20] = test system: SR leukemia
[21] = test system: HS 578T breast
[22] = test system: SF-539 CNS
[23] = test system: KM12 colon
[24] = test system: SK-OV-3 ovarian
[25] = test system: DU-145 prostate
[26] = test system: OVCAR-5 ovarian
[27] = test system: CAKI-1 renal
[28] = test system: A549 NSCLC
[29] = test system: HCT-15 colon
[30] = test system: MDA-N
[31] = test system: NCI/ADR-RES ovarian
[32] = test system: NCI-H23 lung
[33] = test system: UO-31 renal
[34] = test system: 786-0 renal
[35] = test system: NCI-H522 lung
[36] = test system: BT-549 breast
[37] = test system: K-562 leukemia
[38] = test system: SF-295 CNS
[39] = test system: PC-3 prostate
[40] = test system: HCC-2998 colon
[41] = test system: MOLT-4 leukemia
[42] = test system: EKVX NSCLC
[43] = test system: SN12C renal
[44] = test system: MDA-MB-231 breast
[45] = test system: OVCAR-4 ovarian
[46] = test system: NCI-H226 lung
[47] = test system: HL-60(TB) leukemia
[48] = test system: HT29 colon
[49] = test system: MALME-3M melanoma
[50] = test system: SW-620 colon
[51] = test system: RPMI-8226 leukemia
[52] = test system: HOP-62 NSCLC
[53] = test system: MCF7 breast
[54] = test system: SNB-75 CNS
[55] = test system: T-47D breast
[56] = test system: UACC-257 melanoma
[57] = test system: HCT-116 colon

Measured: TGI

CC(C)Cc1c(C#N)c(C#N)c(N)n1Cc1ccccc1
> 100 µM: all assays above
